Here are results for one molecule from patent publication US20230414624A1, “METHODS OF TREATING NEUROLOGICAL VENTILATORY INSUFFICIENCY” (Enalare Therapeutics Inc., priority 2022, published 2023).

“Also recorded” adds a separate entry of the source.

The subject of one data set is premature lambs. Briefly: Premature (preterm) lamb proof of concept study: spontaneous ventilation under IV bolus and ascending continuous infusion. Type of data set: in vivo. How it is done:
One set of twin lambs were to be delivered premature via cesarian section, stabilized and managed for four hours. […] The protocol was reviewed and approved by the Institutional Animal Care and Use Committee at Thomas D. Morris, Inc., where the study was conducted.
During delivery and with local anesthesia (1 ml; 2% Lidocaine), lambs were instrumented with an endotracheal tube as well as carotid arterial and jugular catheters through an incision at approximately the midpoint of the anterior neck. Once the umbilical cord was tied and severed, lambs were transferred to a heated surgical bed under a radiant warming lamb. The arterial catheter was connected to a transducer for pressure monitoring and the venous catheter was connected to a pump for continuous infusion of 5% dextrose in water (D5W) at a rate of 6 ml/kg/hr. A reaction thermistor was inserted to monitor temperature and lambs were covered with plastic to minimize evaporative heat loss. The airway was suctioned and Surfactant (Curosurf, 2.5 ml/kg) was administered intratracheally over a period of 5 minutes in 4 positions (Trendelenburg, reverse Trendelenburg, and left and right lateral decubitus positions). Lambs were to receive four mechanical breaths for lung recruitment and then started on CPAP initiated at 5 cmH2O and continuously optimized to effect (4-8 cmH2O) along with fraction of inspired oxygen (FIO2) over the course of the study.
The formulation used was a 10 mg/mL aqueous solution (adjusted for the hydrogen sulfate salt and impurities) with a citric acid buffer and a pH of 3.2. The infusion was with ascending dose hourly, while the second lamb was to serve as sham control. […] The four, hourly doses are described in table 1.
For pulmonary function assessments, a pneumotach was placed between the endotracheal tube and the CPAP connector. At least ten representative breaths free of movement of atypical breathing artifact were recorded using a pulmonary function system designed for neonatal research (NewLifeBox-R, Advanced Life Diagnostics, Weener, Germany). For each period the rate, tidal volumes and minute ventilation was derived from an average of the ten breaths. To maintain a stable plain of anesthesia, repeat doses of fentanyl (1 μg IM) were given as needed throughout the protocol based on blood pressure response to stimulation. At the conclusion of the study, animals were sacrificed and tissue sampled harvested for subsequent histopathology.

A further data set has as its system adult humans. The settings on record: 0.4 mg/kg/hr infusion; cited from earlier work.
For data set [1] the following is noted: 3 mg/kg IV bolus, animals; cited from earlier work.
[2] abbreviates: test lamb, ascending hourly infusion.

With `CCCNc1nc(NCCC)nc(N(C)OC)n1` [Compound 1, N-(4,6-Bis-n-propylamino-[1,3,5]triazin-2-yl)-O,N-dimethyl-hydroxylamine], the “Spontaneous breathing, both lambs” value in the data set on premature lambs (after bolus administration of a loading dose) is “immediately resulted in spontaneous breathing in both lambs”. The “Respiratory rate (RR), course over the four hours” value with premature lambs (in vivo) is given as “gradually decreased”. Further, in the data set on premature lambs (sham lamb 4.1 kg, no spontaneous breathing before, single IV bolus 2.4 mg/kg, no infusion), the “Spontaneous breathing after IV bolus” value is given as “the lamb began breathing spontaneously. After several minutes, the spontaneous breathing efforts abated”. The “Spontaneous breathing after IV bolus loading dose” value with premature lambs (test lamb 3.2 kg, no spontaneous breathing before, IV bolus 3.1 mg/kg during 0.4 mg/kg/hr infusion, then continuous infusion for four hours) is “the lamb began breathing spontaneously and never again required manual intervention”. Also, the “Spontaneous minute ventilation (MV) at baseline and for 10 minutes after start of infusion” value with premature lambs (test lamb, 0.4 mg/kg/hr infusion without loading dose) was “zero”. In the data set on premature lambs (test lamb, IV bolus 3.1 mg/kg), the “Spontaneous minute ventilation (MV) immediately following the bolus loading dose” value was “approximately 1,100 mL/min”. In the data set on premature lambs (setting [2]), the “End tidal carbon dioxide level (EtCO2), course over the four hours” value is reported as “concomitant decrease; also recorded: progressive decline”; the “Heart rate and mean arterial pressure through the four hours” value was “stable”; the “Tidal volume, course over the four hours” value is on record as “consistent rise”. For the same molecule, in the data set on premature lambs (test lamb, ascending hourly infusion 0.4, 1.1, 2.0, 12 mg/kg/hr), the “Minute ventilation (MV), course over the four hours” value is given as “continued to rise”. For the same molecule, in the data set with premature lambs (test lamb, ascending hourly infusion, 1,344 mL/min = maximal MV of literature mechanical ventilation), the “Minute ventilation (MV), all but the first three measurements of spontaneous breathing” value is listed as “exceeded 1,344 mL/min”. The “Tidal volume per kg of body weight versus lung protective range” value in the data set with premature lambs (test lamb, ascending hourly infusion, range 4 to 6 mL/kg) is “at least as deep and ultimately surpassed the lung protective range of 4 to 6 mL/kg; also recorded: always within or above the noted target tidal volume range”. The molecule also registered a Respiratory rate with premature lambs (test lamb, whole study period, normal newborn lamb 36 to 48) not below 70 breaths per minute. Also, in the data set on adult humans, the “Efficacy of the low dose in adult humans” value is reported as “minimal effect; also recorded: limited efficacy; also recorded: humans; minimal efficacy”. For the same molecule, the “Plasma levels after bolus intravenous injection” value in data set [1] is “transient therapeutic plasma levels”.
